Measurements: patent publication US12729458B2, “Discovery and evolution of biologically active metabolites” (The Regents of the University of Colorado, a Body Corporate, priority 2020, dated 2026)
Like-named read-outs stand apart in the source and are kept apart here.

Key:
PTP1B (PTP1B1-321) = target: T1, PTP1B (PTP1B1-321) (Homo sapiens, UniProt P18031); test: PTP1B-catalyzed hydrolysis of pNPP in the presence of terpenoids (enzyme kinetics, IC50 from best-fit models); type: biochemical, H. sapiens; conditions: for IC50: 15 mM pNPP, 10% DMSO; for Ki: PTP1B1-321
T1 construct: His-tag; made in house; host or cells: E. coli BL21 (DE3), pET21b
T1 sequence (P18031 1-321): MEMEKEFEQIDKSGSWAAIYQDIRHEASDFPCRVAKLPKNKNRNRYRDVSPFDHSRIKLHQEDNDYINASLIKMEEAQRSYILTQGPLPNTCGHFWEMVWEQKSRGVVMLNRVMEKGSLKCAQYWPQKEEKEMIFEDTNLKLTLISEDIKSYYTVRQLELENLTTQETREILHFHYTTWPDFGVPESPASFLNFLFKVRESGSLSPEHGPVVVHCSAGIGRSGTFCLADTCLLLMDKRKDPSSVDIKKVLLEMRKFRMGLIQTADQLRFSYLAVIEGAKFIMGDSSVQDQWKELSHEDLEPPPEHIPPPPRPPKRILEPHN
Method: Enzyme kinetics. To examine terpenoid-mediated inhibition, PTP1B-catalyzed hydrolysis of p-nitrophenyl phosphate (pNPP) was measured in the presence of various concentrations of terpenoids. Each reaction included PTP1B ([…]), pNPP (0.33, 0.67, 2, 5, 10, and 15 mM), inhibitors (110 μM, 50 μM, and 15 μM for amorphadiene; 100 μM, 50 μM, and 16.7 μM for taxadiene), and buffer (50 mM HEPES pH=7.5, 0.5 mM TCEP, 50 μg/ml BSA, 10% DMSO). The formation of p-nitrophenol was monitored by measuring absorbance at 405 nm every 10 seconds for 5 minutes on a Spectramax M2 plate reader.
Kinetic models were evaluated in three steps: (i) Initial-rate measurements collected in the absence and presence of inhibitors were fitted to Michaelis-Menten and inhibition models, respectively (here, the nlinfit and fminsearch functions from MATLAB were used). (ii) An F-test was used to compare the mixed model to the single-parameter model with the least sum squared error (here, the fcdf function from MATLAB was used to assign p-values), and the mixed model was accepted when p<0.05.
The MATLAB function “nlparci” was used to determine the confidence intervals of kinetic parameters, and those intervals were propagated to estimate corresponding confidence on IC50's.
Enzyme kinetics. To examine terpenoid-mediated inhibition, we measured PTP-catalyzed hydrolysis of p-nitrophenyl phosphate (pNPP) or 4-methylumbelliferyl phosphate (4-MUP, used when KM for pNPP was large) in the presence of various concentrations of terpenoids. Each reaction included PTP (0.05 μM PTP1B/TCPTP or 0.1 μM SHP1/SHP2 in 50 mM HEPES, 0.5 mM TCEP, 50 μg/ml BSA), pNPP (0.33, 0.67, 2, 5, 10, and 15 mM) or 4-MUP (0.13, 0.27, 0.8, 2.27, 2.93, 4.53, 7.07, and 8 mM), inhibitor (with concentrations listed in the figures), buffer (50 mM HEPES pH=7.3, 50 μg/ml BSA), and DMSO at 10% v/v. We monitored the formation of p-nitrophenol by measuring absorbance at 405 nm every 10 seconds for 5 minutes on a SpectraMax M2 plate reader and the formation of 4-methylumbelliferyl by measuring fluorescence at 450 nm (370 nm ex, 435 nm cutoff, medium gain).
We used a custom MATLAB script to process all raw kinetic data. This script removed all concentration values that fell outside of either (i) the range of our standard curve (absorbance/fluorescence vs. μM; FIG. 39) or (ii) the initial rate regime (>10% of the pNPP or 4-MUP concentration used in the assay). When this step reduced kinetic dataset to fewer than ten points, we re-measured those datasets to collect at least ten. We fit final datasets, in turn, with a linear regression model (using Matlab's backslash operator).
We evaluated kinetic models in three steps: (i) We fit initial-rate measurements collected in the absence and presence of inhibitors to Michaelis-Menten and inhibition models, respectively (here, we used the nlinfit and fminsearch functions from MATLAB; TABLE 12). (ii) We used an F-test to compare the mixed model to the single-parameter model with the least sum squared error (here, we used the fedf function from MATLAB to assign p-values), and we accepted the mixed model when p<0.05.

[1] = tested on: insulin receptor (IR) phosphorylation (PTP1B-mediated) in HEK293T/17 cells; test: ELISA of insulin receptor (IR) phosphorylation in HEK293T/17 cells; type: cell-based; conditions: 3% DMSO, 10 minutes, starved HEK293T/17 cells, vs 3% DMSO control
Text: Analysis of PTP1B inhibition in HEK293TCells. We prepared HEK293T/17 cells for an enzyme-linked immunosorbent assay (ELISA) by growing them in 75 cm^2 culture flasks (Corning) with DMEM media supplemented with 10% FBS, 100 units/ml penicillin, and 100 units/ml streptomycin. We replaced the media every day for 3-5 days until the cells reached 80-100% confluency.
We measured the influence of inhibitors on insulin receptor (IR) phosphorylation by using an IR-specific ELISA (FIG. 35). Briefly, we starved cells for 48 hours in FBS-free media and incubated the with inhibitors (all at 3% DMSO) for 10 minutes. After incubation, we lysed cells with lysis buffer (9803, Cell Signaling Technology) supplemented with 1× halt phosphatase inhibitor cocktail and 1× halt protease inhibitor cocktail (Thermo Fisher Scientific) for 10 min, pelleted the cell debris, and used the lysis buffer to dilute each sample to 60 mg/ml total protein. We measured IR phosphorylation in subsequent dilutions of the 60 mg/ml samples with the PathScan® Phospho-Insulin Receptor β (panTyr) Sandwich ELISA Kit (Cell Signaling Technology; #7082).
Statistical analysis and reproducibility. We determined statistical significance (FIG. 23H) with a two-tailed Student's t-test (details in TABLE 14), and we used an F-test to compare one- and two-parameter models of inhibition (TABLE 12).

PTP1B = target: T2, PTP1B (Homo sapiens, UniProt P18031); test: X-ray crystallography of PTP1B soaked with ligand; type: binding, H. sapiens
T2 construct: In this study, we used a well-studied truncation variant (i.e., PTP1B1-321); His-tag; made in house; host or cells: E. coli BL21 (DE3), pET21b
T2 sequence (P18031 1-321): T1 sequence (P18031 1-321)
Method: X-ray crystallography. We prepared crystals of PTP1B by using hanging drop vapor diffusion. In brief, we added 2 μL of PTP1B (~600 μM PTP1B, 50 mM HEPES, pH 7.3) to 6 μL of crystallization solution (100 mM HEPES, 200 mM magnesium acetate, and 14% polyethylene glycol 8000, pH 7.5) and incubated the resulting droplets over crystallization solution for one week at 4° C. (EasyXtal CrystalSupport, Qiagen). We soaked crystals with ligand by transferring them to droplets formed with 6 μL of crystallization solution and 1 μL of ligand solution (10 mM in DMSO), which we incubated for 2-5 days at 4° C. We prepared all […] for freezing by soaking them in cryoprotectant formed from a 70/30 (v/v) mixture of buffer (100 mM HEPES, 200 mM magnesium acetate, and 25% polyethylene glycol 8000, pH 7.5) and glycerol.
We collected X-ray diffraction data through the Collaborative Crystallography Program at Lawrence Berkeley National Lab (ALS ENABLE, beamline 8.2.1, 100 K, 1.00003 Å). We performed integration, scaling, and merging of X-ray diffraction data using the xia2 software package^79, and we carried out molecular replacement and structure refinement with the PHENIX graphical interface,^80 supplemented with manual model adjustment in COOT^81 and one round of PDB-REDO^82 (the latter, only for the PTP1B-AD complex).

[2] = competitive model of inhibition, read-out: Fit par. Ki, competitive model
[3] = mixed model, uncompetitive constant, read-out: Fit par. Ki,u, mixed model
[4] = noncompetitive model of inhibition, read-out: Fit par. Ki, noncompetitive model
[5] = uncompetitive model of inhibition, read-out: Fit par. Ki, uncompetitive model

SMILES	IC50 (PTP1B (PTP1B1-321); Example 2, HEPES pH 7.3, ± 95% confidence interval) [µM]	Ki (PTP1B (PTP1B1-321); [2]) [µM]	Ki (PTP1B (PTP1B1-321); mixed model, competitive constant, read-out: Fit par. Ki,c, mixed model) [µM]	Ki (PTP1B (PTP1B1-321); [3]) [µM]	Ki (PTP1B (PTP1B1-321); [4]) [µM]	Ki (PTP1B (PTP1B1-321); [5]) [µM]	IR phosphorylation (ELISA signal) ([1]; 930 μM)	IR phosphorylation (ELISA signal) ([1]; 930 μM, listed as DHA)	IC50 (PTP1B (PTP1B1-321); Example 1, HEPES pH 7.5) [µM]	model (mode) of PTP1B inhibition from Michaelis-Menten fits (PTP1B (PTP1B1-321); pNPP initial rates)	IR phosphorylation (ELISA signal) ([1]; 405 μM)	IR phosphorylation (ELISA signal) ([1]; 405 μM, listed as ABOL)	solubility (crystal soaking experiments) (PTP1B)
CC1=C[C@@H]2C(=C(C)CC[C@H]2C(C)C)CC1 [(+)-1 (10),4-cadinadiene]	165 ± 33	14.8	5690	169	190	168	–	–	–	–	–	–	–
CC1=C[C@H]2[C@@H](CC1)[C@H](C)CC[C@H]2[C@@H](C)C(=O)O [dihydroartemisinic acid, reference compound]	–	178	–	469	541	469	reduction in signal	reduced signals	–	–	–	–	–
CC1=CCC[C@@]2(C)CCC3=C(C)CC[C@@H](C[C@H]12)C3(C)C [taxadiene]	–	–	–	–	–	–	–	–	119	mixed inhibition	–	–	–
CC(C)=CCC[C@](C)(O)[C@@H]1CC=C(C)CC1 [α-bisabolol, reference compound]	–	178	–	469	541	469	–	–	–	–	reduction in signal	reduced signals	soluble
